Test results: patent publication US11834432B2, “Substituted amino six-membered nitric heterocyclic ring compound and preparation and use thereof” (SHANGHAI INSTITUTE OF MATERIA MEDICA, CHINESE ACADEMY OF …, priority 2016, dated 2023)
Where “and” joins values, the source holds several entries; their conditions need not be identical. Equal entries are not always repeated.

Key:
ABL = ABL (Homo sapiens (Human), UniProt P00519); assay: In vitro tyrosine kinase inhibition screening (ELISA); assay type: biochemical; details: 1 h
Experimental: (§1) 4. In Vitro Screening Test on Tyrosine Kinase Activity Inhibition Screening method: Enzyme-linked immunosorbent assay (ELISA) tyrosine kinase: Enzyme spectrum Time of action: 1 h

RET = RET (Homo sapiens (Human), UniProt P07949); assay: as above; assay type: biochemical; details: 1 h
Experimental: as §1

EGFR = EGFR (Homo sapiens (Human), UniProt P00533); assay: as above; assay type: biochemical; details: 1 h
Experimental: as §1

VEGFR-1 = VEGFR-1 (Homo sapiens (Human), UniProt P17948); assay: as above; assay type: biochemical; details: 1 h
Experimental: as §1

PDGFR-β = PDGFR-β (Homo sapiens (Human), UniProt P09619); assay: as above; assay type: biochemical; details: 1 h
Experimental: as §1

ErbB2 = ErbB2 (Homo sapiens (Human), UniProt P04626); assay: as above; assay type: biochemical; details: 1 h
Experimental: as §1

VEGFR-2 = VEGFR-2 (Homo sapiens (Human), UniProt P35968); assay: as above; assay type: biochemical; details: 1 h
Experimental: as §1

c-Met = c-Met (Homo sapiens (Human), UniProt P08581); assay: as above; assay type: biochemical; details: 1 h
Experimental: as §1

PDGFR-α = PDGFR-α (Homo sapiens (Human), UniProt P16234); assay: as above; assay type: biochemical; details: 1 h
Experimental: as §1

IGF1R = IGF1R (Homo sapiens (Human), UniProt P08069); assay: as above; assay type: biochemical; details: 1 h
Experimental: as §1

c-Src = c-Src (Homo sapiens (Human), UniProt P12931); assay: as above; assay type: biochemical; details: 1 h
Experimental: as §1

EPH-A2 = EPH-A2 (Homo sapiens (Human), UniProt P29317); assay: as above; assay type: biochemical; details: 1 h
Experimental: as §1

ErbB4 = ErbB4 (Homo sapiens (Human), UniProt Q15303); assay: as above; assay type: biochemical; details: 1 h
Experimental: as §1

[1] = test system: human gastric cancer SNU-16 subcutaneously transplanted tumor; assay: Growth of subcutaneously transplanted tumor in human gastric cancer SNU-16 nude mice; assay type: in vivo
Experimental: The human gastric cancer SNU-16 cell strain was preserved in our laboratory.
S10 groups (30 mg/kg and 10 mg/kg) were orally administered once a day for 21 days; AZD4547 group (10 mg/kg) was administered orally once a day for 21 days; solvent control group was given the same amount of water for injection.

[2] = target: FGFR1 kinase domain recombinant protein (Homo sapiens (Human), UniProt P11362); assay: Inhibition of receptor tyrosine kinase FGFR1 activity (ELISA); assay type: biochemical
Experimental: 1. Preliminary Evaluation Inhibition on Receptor Tyrosine Kinase FGFR1 Activity of Compound
1. […] The liquid from the well was discarded. The plate was washed for three times with T-PBS (0.1% Tween-20 in potassium-free PBS, 200 μL/well), 5 minutes for each time. The elisa plate was dried in 37° C. dryer for 1-2 hours.
2. 49 μL of ATP solution diluted in reaction buffer (50 mM HEPES pH 7.4, 50 mM MgCl2, 0.5 mM MnCl2, 0.2 mM Na3VO4, 1 mM DTT) was added into each well, and 1 μL of the test compound was added to each well, and then 50 μL of FGFR1 kinase domain recombinant protein diluted in reaction buffer was added to initiate the reaction, and two control wells without ATP were required for each experiment. The reaction was performed on a Shaker (100 rpm) at 37° C. for 1 hour. The liquid from the well was discarded, and the plate was washed with T-PBS for three times.
3. The antibody PY99 dilution (antibody diluted 1:500 in T-PBS with BSA 5 mg/mL) was added at 100 μL/well, and shaken for 0.5 hours on a 37° C. shaker. The liquid from the well was discarded, and the plate was washed with T-PBS for three times.
4. The horseradish peroxidase-labeled goat anti-mouse second antibody dilution (antibody diluted 1:2000 in T-PBS with BSA 5 mg/mL) was added at 100 μL/well, and shaken for 0.5 hours on a 37° C. shaker. The liquid from the well was discarded, and the plate was washed with T-PBS for three times.
5. 2 mg/mL OPD coloration solution (diluted with 0.1 M citric acid-sodium citrate buffer containing 0.03% H2O2 (pH=5.4)) was added at 100 μL/well, and reacted for 1-10 minutes at 25° C. in darkness.
6. The reaction was quenched with 50 μL/well of 2M H2SO4, and the plate was read using a tunable microplate microplate reader VERSAmax at 490 nm.
(§2) The IC50 values were obtained by four-parameter regression analysis using the software supplied with the microplate reader.

SNU16 cells = assay: Inhibition of proliferation of SNU16 cells (CCK-8); assay type: cell-based; details: Homo sapiens, SNU-16, 72 h
Experimental: The inhibitory effect on proliferation of SNU16 cells of a compound was examined by CCK-8 Cell Counting Kit (Dojindo). The steps are as follows: SNUI 6 cells at Logarithmic growth phase were seeded in a 96-well culture plate at appropriate density, 90 ul for each well. After cultured overnight, different concentrations of drugs were added and treated for 72 h, while solvent control well was set (negative control). After 72 h, the influence of the compound on the proliferation of cells was observed by CCK-8 cell counting kit (Dojindo). 10 μL of CCK-8 reagent was added to each well. After incubated for 2-4 hours in a 37° C. incubator, the plate was read with SpectraMax 190 microplate reader at wavelength 450 nm.
as §2

Chain of IGF1R (P08069 31-1367, species assumed): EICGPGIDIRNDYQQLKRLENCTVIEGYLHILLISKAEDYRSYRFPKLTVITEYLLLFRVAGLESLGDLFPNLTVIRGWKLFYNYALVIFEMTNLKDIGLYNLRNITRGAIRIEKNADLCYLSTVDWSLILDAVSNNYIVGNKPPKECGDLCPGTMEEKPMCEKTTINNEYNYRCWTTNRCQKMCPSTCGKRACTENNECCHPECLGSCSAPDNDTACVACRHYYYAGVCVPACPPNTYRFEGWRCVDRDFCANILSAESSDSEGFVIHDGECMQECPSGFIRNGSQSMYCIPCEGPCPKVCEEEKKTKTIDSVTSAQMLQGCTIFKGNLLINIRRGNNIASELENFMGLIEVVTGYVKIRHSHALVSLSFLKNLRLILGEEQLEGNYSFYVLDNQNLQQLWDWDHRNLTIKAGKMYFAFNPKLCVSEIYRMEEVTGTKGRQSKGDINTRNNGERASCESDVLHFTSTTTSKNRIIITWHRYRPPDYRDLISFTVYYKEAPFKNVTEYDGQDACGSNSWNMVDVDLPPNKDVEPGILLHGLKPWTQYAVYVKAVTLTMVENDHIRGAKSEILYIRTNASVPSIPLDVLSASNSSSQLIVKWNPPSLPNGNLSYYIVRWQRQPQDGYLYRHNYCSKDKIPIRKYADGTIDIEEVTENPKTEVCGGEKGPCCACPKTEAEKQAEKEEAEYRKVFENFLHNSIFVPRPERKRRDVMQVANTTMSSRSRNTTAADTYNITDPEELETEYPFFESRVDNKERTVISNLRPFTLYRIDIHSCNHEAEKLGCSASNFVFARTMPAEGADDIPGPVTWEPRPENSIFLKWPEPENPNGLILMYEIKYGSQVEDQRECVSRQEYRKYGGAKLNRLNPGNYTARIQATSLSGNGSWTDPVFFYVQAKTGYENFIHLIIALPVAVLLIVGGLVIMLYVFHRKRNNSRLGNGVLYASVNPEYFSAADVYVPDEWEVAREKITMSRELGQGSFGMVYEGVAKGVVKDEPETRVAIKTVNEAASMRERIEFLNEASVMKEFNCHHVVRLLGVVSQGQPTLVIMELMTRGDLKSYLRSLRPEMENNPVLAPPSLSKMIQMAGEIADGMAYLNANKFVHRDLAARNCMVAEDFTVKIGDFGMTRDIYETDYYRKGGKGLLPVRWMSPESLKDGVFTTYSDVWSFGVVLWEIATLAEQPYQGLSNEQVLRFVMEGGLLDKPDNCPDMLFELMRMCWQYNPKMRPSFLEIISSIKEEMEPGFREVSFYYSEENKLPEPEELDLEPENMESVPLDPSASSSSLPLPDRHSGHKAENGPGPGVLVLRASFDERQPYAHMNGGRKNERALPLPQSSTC
Chain of c-Src (P12931 whole entry, looked up, species assumed): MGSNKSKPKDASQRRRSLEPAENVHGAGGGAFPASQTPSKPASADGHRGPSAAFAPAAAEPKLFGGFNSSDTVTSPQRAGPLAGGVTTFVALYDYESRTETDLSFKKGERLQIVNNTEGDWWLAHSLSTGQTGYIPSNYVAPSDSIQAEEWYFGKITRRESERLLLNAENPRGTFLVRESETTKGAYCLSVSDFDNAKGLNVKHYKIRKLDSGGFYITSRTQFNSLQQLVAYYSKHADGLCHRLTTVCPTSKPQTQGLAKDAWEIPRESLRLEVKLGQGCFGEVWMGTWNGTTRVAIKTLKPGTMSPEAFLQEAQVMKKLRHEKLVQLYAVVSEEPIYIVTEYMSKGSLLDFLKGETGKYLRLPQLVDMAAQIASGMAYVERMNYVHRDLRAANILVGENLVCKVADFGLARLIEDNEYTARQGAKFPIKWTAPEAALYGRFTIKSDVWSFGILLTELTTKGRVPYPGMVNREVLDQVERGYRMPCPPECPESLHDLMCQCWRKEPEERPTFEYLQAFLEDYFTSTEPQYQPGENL
Chain of PDGFR-β (P09619 33-1106): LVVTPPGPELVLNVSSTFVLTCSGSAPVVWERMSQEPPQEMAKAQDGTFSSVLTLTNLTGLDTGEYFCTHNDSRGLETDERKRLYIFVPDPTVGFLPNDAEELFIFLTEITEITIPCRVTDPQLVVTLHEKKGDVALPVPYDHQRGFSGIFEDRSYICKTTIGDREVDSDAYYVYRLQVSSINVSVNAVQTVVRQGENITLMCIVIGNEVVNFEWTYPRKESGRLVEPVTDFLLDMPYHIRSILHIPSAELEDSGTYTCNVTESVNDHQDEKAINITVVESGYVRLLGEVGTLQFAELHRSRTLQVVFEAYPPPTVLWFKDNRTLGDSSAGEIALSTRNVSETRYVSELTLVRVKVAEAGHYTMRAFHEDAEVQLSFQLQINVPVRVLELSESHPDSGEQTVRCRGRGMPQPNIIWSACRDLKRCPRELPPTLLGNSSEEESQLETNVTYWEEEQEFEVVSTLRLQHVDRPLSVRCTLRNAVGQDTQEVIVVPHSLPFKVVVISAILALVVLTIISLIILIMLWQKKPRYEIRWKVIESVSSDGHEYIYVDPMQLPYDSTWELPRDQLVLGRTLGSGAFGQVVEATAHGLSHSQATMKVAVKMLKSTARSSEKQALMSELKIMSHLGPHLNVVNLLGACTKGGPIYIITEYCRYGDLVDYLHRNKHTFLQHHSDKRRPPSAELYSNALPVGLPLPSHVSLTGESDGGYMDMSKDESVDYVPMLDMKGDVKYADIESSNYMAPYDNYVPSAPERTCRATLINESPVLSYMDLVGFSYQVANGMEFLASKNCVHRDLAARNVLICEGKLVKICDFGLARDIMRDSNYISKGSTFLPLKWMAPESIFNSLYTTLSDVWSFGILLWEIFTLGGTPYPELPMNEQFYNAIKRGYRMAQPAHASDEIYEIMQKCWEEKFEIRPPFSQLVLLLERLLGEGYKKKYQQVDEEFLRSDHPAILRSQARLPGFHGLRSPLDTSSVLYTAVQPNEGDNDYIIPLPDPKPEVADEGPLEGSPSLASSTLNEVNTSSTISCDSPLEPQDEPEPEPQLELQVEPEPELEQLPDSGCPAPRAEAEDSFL
Chain of RET (P07949 29-1114, species assumed): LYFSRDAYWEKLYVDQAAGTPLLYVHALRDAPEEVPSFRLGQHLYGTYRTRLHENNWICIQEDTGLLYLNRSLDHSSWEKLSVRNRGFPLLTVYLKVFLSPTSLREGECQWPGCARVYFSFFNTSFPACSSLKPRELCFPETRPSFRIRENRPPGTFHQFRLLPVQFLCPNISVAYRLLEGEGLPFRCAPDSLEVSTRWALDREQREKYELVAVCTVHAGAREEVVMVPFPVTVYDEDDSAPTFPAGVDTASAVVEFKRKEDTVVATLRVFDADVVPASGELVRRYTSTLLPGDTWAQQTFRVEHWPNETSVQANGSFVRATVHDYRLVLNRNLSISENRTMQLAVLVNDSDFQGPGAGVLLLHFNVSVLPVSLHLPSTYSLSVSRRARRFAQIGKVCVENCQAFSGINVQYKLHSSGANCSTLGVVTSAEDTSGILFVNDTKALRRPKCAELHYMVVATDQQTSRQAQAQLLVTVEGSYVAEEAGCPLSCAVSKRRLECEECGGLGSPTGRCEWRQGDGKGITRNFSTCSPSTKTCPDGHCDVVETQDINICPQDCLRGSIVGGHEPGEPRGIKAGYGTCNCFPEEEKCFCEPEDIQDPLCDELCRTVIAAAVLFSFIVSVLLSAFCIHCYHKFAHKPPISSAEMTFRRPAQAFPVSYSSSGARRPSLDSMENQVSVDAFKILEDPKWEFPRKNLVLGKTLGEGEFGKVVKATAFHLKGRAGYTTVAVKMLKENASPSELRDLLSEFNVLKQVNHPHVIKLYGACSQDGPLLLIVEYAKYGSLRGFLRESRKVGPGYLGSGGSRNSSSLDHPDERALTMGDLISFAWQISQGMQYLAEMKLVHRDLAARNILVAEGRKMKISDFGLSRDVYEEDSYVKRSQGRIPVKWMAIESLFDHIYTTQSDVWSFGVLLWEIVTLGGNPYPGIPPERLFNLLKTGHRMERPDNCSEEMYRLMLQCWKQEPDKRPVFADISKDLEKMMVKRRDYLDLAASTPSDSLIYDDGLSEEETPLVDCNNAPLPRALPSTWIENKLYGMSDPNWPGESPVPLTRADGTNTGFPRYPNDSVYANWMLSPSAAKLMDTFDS
Chain of FGFR1 kinase domain recombinant protein (P11362 478-767): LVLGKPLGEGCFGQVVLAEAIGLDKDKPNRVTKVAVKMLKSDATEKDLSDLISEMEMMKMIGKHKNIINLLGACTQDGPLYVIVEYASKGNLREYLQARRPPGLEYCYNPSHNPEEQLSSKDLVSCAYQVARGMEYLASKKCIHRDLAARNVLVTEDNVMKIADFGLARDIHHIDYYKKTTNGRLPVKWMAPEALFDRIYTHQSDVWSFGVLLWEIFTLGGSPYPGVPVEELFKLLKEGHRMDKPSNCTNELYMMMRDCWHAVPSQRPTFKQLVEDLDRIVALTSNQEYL

CNC(=O)c1cccc2cc(Oc3ccnc(NC(=O)c4ccc(N5C[C@@H](C)N[C@@H](C)C5)cc4)c3)ccc12 [Compound S10]
Inhibition ratio (%) ABL (ABL; 10 nM): 17.5%
Inhibition ratio (%) ABL (ABL; 1000 nM): 28.8%
Inhibition ratio (%) RET (RET; 10 nM): 13.2%
Inhibition ratio (%) RET (RET; 1000 nM): 90.5%
Inhibition ratio (%) EGFR (EGFR; 10 nM): 9.6%
Inhibition ratio (%) EGFR (EGFR; 1000 nM): 11.3%
Inhibition ratio (%) VEGFR-1 (VEGFR-1; 10 nM): 75.6%
Inhibition ratio (%) VEGFR-1 (VEGFR-1; 1000 nM): 100.0%
Inhibition ratio (%) PDGFR-β (PDGFR-β; 10 nM): 56.4%
Inhibition ratio (%) PDGFR-β (PDGFR-β; 1000 nM): 87.8%
Inhibition ratio (%) ErbB2 (ErbB2; 10 nM): 17.4%
Inhibition ratio (%) ErbB2 (ErbB2; 1000 nM): 22.2%
Inhibition ratio (%) VEGFR-2 (VEGFR-2; 10 nM): 90.4%
Inhibition ratio (%) VEGFR-2 (VEGFR-2; 1000 nM): 98.7%
Inhibition ratio (%) c-Met (c-Met; 10 nM): 11.2%
Inhibition ratio (%) c-Met (c-Met; 1000 nM): 29.5%
Inhibition ratio (%) PDGFR-α (PDGFR-α; 10 nM): 50.2%
Inhibition ratio (%) PDGFR-α (PDGFR-α; 1000 nM): 87.1%
Inhibition ratio (%) IGF1R (IGF1R; 10 nM): 23.5%
Inhibition ratio (%) IGF1R (IGF1R; 1000 nM): 11.0%
Inhibition ratio (%) c-Src (c-Src; 10 nM): 20.3%
Inhibition ratio (%) c-Src (c-Src; 1000 nM): 43.6%
Inhibition ratio (%) EPH-A2 (EPH-A2; 10 nM): 4.2%
Inhibition ratio (%) EPH-A2 (EPH-A2; 1000 nM): 7.7%
Inhibition ratio (%) ErbB4 (ErbB4; 10 nM): 2.0%
Inhibition ratio (%) ErbB4 (ErbB4; 1000 nM): 7.0%
Body weight (g) d0 ([1]; 10 mg/kg po qd/21, d0): 19.9 g
TV (mm^3, mean ± SD) d0 ([1]; 10 mg/kg po qd/21, d0): 106 ± 33 mm^3
Body weight (g) d21 ([1]; 10 mg/kg po qd/21, d21): 21.4 g
RTV (mean ± SD) ([1]; 10 mg/kg po qd/21, d21): 3.48 ± 2.29
T/C (%) ([1]; 10 mg/kg po qd/21, d21): 25.35% and 25%
TV (mm^3, mean ± SD) d21 ([1]; 10 mg/kg po qd/21, d21): 322 ± 107 mm^3
Body weight change, condition and mortality of mice during the experiment ([1]; 30 mg/kg po once a day for 21 days): average weight of mice in the S10 group (30 mg/kg) was decreased, but the mice were still in good condition and no mice died
Body weight (g) d0 ([1]; 30 mg/kg po qd/21, d0): 21.2 g
TV (mm^3, mean ± SD) d0 ([1]; 30 mg/kg po qd/21, d0): 106 ± 22 mm^3
Body weight (g) d21 ([1]; 30 mg/kg po qd/21, d21): 17.0 g
RTV (mean ± SD) ([1]; 30 mg/kg po qd/21, d21): 1.19 ± 0.38
T/C (%) ([1]; 30 mg/kg po qd/21, d21): 8.67% and 9%
TV (mm^3, mean ± SD) d21 ([1]; 30 mg/kg po qd/21, d21): 125 ± 47 mm^3
IC50 [2]: < 10 nM
inhibition at 0.1 µM ([2]; 1 h, read-out: Inhibition ratio (%) @ 0.1 μM): 94%
IC50 (SNU16 cells): 6.1 nM
inhibition at 0.01 µM (SNU16 cells; 10 nM, 72 h, read-out: Inhibition ratio (%)): 59.6%
inhibition at 0.1 µM (SNU16 cells; 100 nM, 72 h, read-out: Inhibition ratio (%)): 62.1%
inhibition at 1 µM (SNU16 cells; 1000 nM, 72 h, read-out: Inhibition ratio (%)): 59.7%
